Patent US9139523B2, “5-HT2B receptor antagonists” (Janssen Pharmaceutica, NV, priority 2010, dated 2015)
Like-named read-outs stand apart in the source and are kept apart here.

Columns and labels:
[1] = tested on: anesthetized dogs (Beagles); experiment: Cardio-hemodynamic, cardio-electrophysiological, EEG and pulmonary effects in ventilated, anesthetized dogs; type: in vivo, dog; settings: for Median plasma level: 5-min i.v. infusion
Protocol: (§1) The animals were anesthetized with a mixture of 0.015 mg/kg i.v. scopolamine and 0.075 mg/kg i.v. lofentanil, and relaxed with succinylcholine (5 mg/kg i.v.) followed by a continuous i.v. infusion of 1.5 mg/kg/h of etomidate and small additional doses of fentanyl (0.025 mg/kg i.v.) were given at 60 min intervals. The animals were ventilated and prepared for measurements of the surface ECG, aortic-, pulmonary- and left ventricular blood pressure, carotid blood flow, monophasic action potential, body temperature, blood gasses and EEG (see Van Deuren et al, J Pharmacol Toxicol Methods; 2009; 60: 11-23). Compound (−)-17 was dissolved in 20% hydroxypropyl-cyclodextrin with NaOH, HCl and mannitol in pyrogen-free water and administered intravenously (1 ml/kg) in increasing doses (0.16, 0.32, 0.63, 1.25, 2.5 and 5 mg/kg) over a period of 5 min at 30-min intervals. Plasma concentrations of Compound (−)-17 were measured before and at the end of each infusion. Corresponding volumes of vehicle were administered according to the same protocol in a second group of animals.

[2] = as above; type: in vivo, dog; settings: Beagle, plasma, iv, dog, 5-min i.v. infusion
Protocol: as §1

## COc1cc(N)c(Cl)cc1C(=O)NC1CCN(CCCOc2ccc(F)cc2)CC1(F)F (single isomer, unassigned) [Compound (−)-17, 4-amino-5-chloro-N-{3,3-difluoro-1-[3-(4-fluorophenoxy)-propyl]-piperidin-4-yl}-2-methoxybenzamide]
[1]; dog i.v. 0.16 mg/kg @ 5′
  DPP, percentage change relative to vehicle: +3%
  HR, percentage change relative to vehicle: −4%
  LVdp/dtmax, percentage change relative to vehicle: −1%
  MBP, percentage change relative to vehicle: +2%
  PQ, percentage change relative to vehicle: −1%
  QRS, percentage change relative to vehicle: +1%
  QTcV, percentage change relative to vehicle: +2%
  SPP, percentage change relative to vehicle: +2%
[1]; dog i.v. 0.16 mg/kg @ 30′
  DPP, percentage change relative to vehicle: −3%
  HR, percentage change relative to vehicle: −5%
  LVdp/dtmax, percentage change relative to vehicle: +0%
  MBP, percentage change relative to vehicle: +3%
  PQ, percentage change relative to vehicle: −0%
  QRS, percentage change relative to vehicle: +2%
  QTcV, percentage change relative to vehicle: +4%
  SPP, percentage change relative to vehicle: +5%
[1]; dog i.v. 0.32 mg/kg @ 5′
  DPP, percentage change relative to vehicle: +0%
  HR, percentage change relative to vehicle: −5%
  LVdp/dtmax, percentage change relative to vehicle: +0%
  MBP, percentage change relative to vehicle: +5%
  PQ, percentage change relative to vehicle: −2%
  QRS, percentage change relative to vehicle: +3%
  QTcV, percentage change relative to vehicle: +2%
  SPP, percentage change relative to vehicle: +11%
[1]; dog i.v. 0.32 mg/kg @ 30′
  DPP, percentage change relative to vehicle: −8%
  HR, percentage change relative to vehicle: +3%
  LVdp/dtmax, percentage change relative to vehicle: −4%
  MBP, percentage change relative to vehicle: +2%
  PQ, percentage change relative to vehicle: −2%
  QRS, percentage change relative to vehicle: +4%
  QTcV, percentage change relative to vehicle: +1%
  SPP, percentage change relative to vehicle: −3%
[1]; dog i.v. 0.63 mg/kg @ 5′
  DPP, percentage change relative to vehicle: +0%
  HR, percentage change relative to vehicle: −0%
  LVdp/dtmax, percentage change relative to vehicle: −3%
  MBP, percentage change relative to vehicle: +6%
  PQ, percentage change relative to vehicle: +3%
  QRS, percentage change relative to vehicle: +4%
  QTcV, percentage change relative to vehicle: +1%
  SPP, percentage change relative to vehicle: −2%
[1]; dog i.v. 0.63 mg/kg @ 30′
  DPP, percentage change relative to vehicle: −9%
  HR, percentage change relative to vehicle: +4%
  LVdp/dtmax, percentage change relative to vehicle: −2%
  MBP, percentage change relative to vehicle: +2%
  PQ, percentage change relative to vehicle: −0%
  QRS, percentage change relative to vehicle: +1%
  QTcV, percentage change relative to vehicle: +4%
  SPP, percentage change relative to vehicle: −1%
[1]; dog i.v. 1.25 mg/kg @ 5′
  DPP, percentage change relative to vehicle: −7%
  HR, percentage change relative to vehicle: −0%
  LVdp/dtmax, percentage change relative to vehicle: −1%
  MBP, percentage change relative to vehicle: +10%
  PQ, percentage change relative to vehicle: +2%
  QRS, percentage change relative to vehicle: +4%
  QTcV, percentage change relative to vehicle: +2%
  SPP, percentage change relative to vehicle: −1%
[1]; dog i.v. 1.25 mg/kg @ 30′
  DPP, percentage change relative to vehicle: −12%
  HR, percentage change relative to vehicle: −3%
  LVdp/dtmax, percentage change relative to vehicle: −5%
  MBP, percentage change relative to vehicle: +0%
  PQ, percentage change relative to vehicle: +2%
  QRS, percentage change relative to vehicle: +2%
  QTcV, percentage change relative to vehicle: +1%
  SPP, percentage change relative to vehicle: −9%
[1]; dog i.v. 2.5 mg/kg @ 5′
  DPP, percentage change relative to vehicle: +1%
  HR, percentage change relative to vehicle: −5%
  LVdp/dtmax, percentage change relative to vehicle: −8%
  PQ, percentage change relative to vehicle: +6%
  QRS, percentage change relative to vehicle: +2%
  QTcV, percentage change relative to vehicle: −3%
  SPP, percentage change relative to vehicle: −1%
[1]; dog i.v. 2.5 mg/kg @ 30′
  DPP, percentage change relative to vehicle: −24%
  HR, percentage change relative to vehicle: −4%
  LVdp/dtmax, percentage change relative to vehicle: +2%
  MBP, percentage change relative to vehicle: +0%
  PQ, percentage change relative to vehicle: +2%
  QRS, percentage change relative to vehicle: +3%
  QTcV, percentage change relative to vehicle: −1%
  SPP, percentage change relative to vehicle: −15%
[1]; dog i.v. 5 mg/kg @ 5′
  DPP, percentage change relative to vehicle: +17%
  HR, percentage change relative to vehicle: −15%
  LVdp/dtmax, percentage change relative to vehicle: −11%
  PQ, percentage change relative to vehicle: +2%
  QRS, percentage change relative to vehicle: +6%
  QTcV, percentage change relative to vehicle: −3%
  SPP, percentage change relative to vehicle: −10%
[1]; dog i.v. 5 mg/kg @ 30′
  DPP, percentage change relative to vehicle: −5%
  HR, percentage change relative to vehicle: −14%
  LVdp/dtmax, percentage change relative to vehicle: +2%
  MBP, percentage change relative to vehicle: +0%
  QRS, percentage change relative to vehicle: +3%
  QTcV, percentage change relative to vehicle: −2%
  SPP, percentage change relative to vehicle: −7%
[1]; dog, 0.16 up to 5 mg/kg i.v., relative to vehicle
  effect on heart rate, pulmonary artery pressure, LV end diastolic pressure, cardiac output, stroke volume, pressure rate product, PQ and QRS, lung function, body temperature, EEG: no relevant effect
[1]; dog, dose 0.16 mg/kg (increasing doses, 30-min intervals)
  Median plasma level: 725 ng/mL
[1]; dog, dose 0.32 mg/kg (increasing doses, 30-min intervals)
  Median plasma level: 1420 ng/mL
[1]; dog, dose 0.64 mg/kg (increasing doses, 30-min intervals)
  Median plasma level: 2540 ng/mL
[1]; dog, at 2.5 mg/kg i.v.
  LV dp/dtmax/pd: started to decrease
[1]; dog, at 5 mg/kg i.v.
  duration of QTc VDW and QTc VcT: minor decrease
[1]; dog, from 1.25 mg/kg i.v. onwards
  arterial blood pressure, vascular resistance (systemic and common carotid) and Tau: started to increase
[2]; dose 1.25 mg/kg (increasing doses, 30-min intervals), read-out: Median plasma level (Cmax)
  Cmax: 5200 ng/mL
[2]; dose 2.5 mg/kg (increasing doses, 30-min intervals), read-out: Median plasma level (Cmax)
  Cmax: 9550 ng/mL
[2]; dose 5 mg/kg (increasing doses, 30-min intervals; total dose 9.86 mg/kg), read-out: Median plasma level (median Cmax)
  Cmax: 20400 ng/mL
